Source: patent US9738612B2, “Methylacryloyl benzimidazolone derivative and anti-tumour use thereof” (SHANGHAI NATURE STANDARD R&D AND BIOTECH CO., LTD, priority 2014, dated 2017)

Experiments:
Test in all cases: Tumor-associated kinase inhibition test
Assay type in all cases: biochemical
Abl(h) = biological target: T1, Abl(h) (Homo sapiens, UniProt P00519); conditions: read-out: Inhibitory rate (%)
T1 construct: purchased Eurofins Pharma Discovery Services UK Limited (contract assay service)
Description: (§1) Eurofins Pharma Discovery Services UK Limited completed and reported this experiment.

Arg(h) = biological target: T2, Arg(h) (Homo sapiens, UniProt P42684); conditions: read-out: Inhibitory rate (%)
T2 construct: purchased Eurofins Pharma Discovery Services UK Limited (contract assay service)
Description: as §1

Aurora-A(h) = biological target: T3, Aurora-A(h) (Homo sapiens, UniProt O14965); conditions: read-out: Inhibitory rate (%)
T3 construct: purchased Eurofins Pharma Discovery Services UK Limited (contract assay service)
T3 sequence (O14965 whole entry): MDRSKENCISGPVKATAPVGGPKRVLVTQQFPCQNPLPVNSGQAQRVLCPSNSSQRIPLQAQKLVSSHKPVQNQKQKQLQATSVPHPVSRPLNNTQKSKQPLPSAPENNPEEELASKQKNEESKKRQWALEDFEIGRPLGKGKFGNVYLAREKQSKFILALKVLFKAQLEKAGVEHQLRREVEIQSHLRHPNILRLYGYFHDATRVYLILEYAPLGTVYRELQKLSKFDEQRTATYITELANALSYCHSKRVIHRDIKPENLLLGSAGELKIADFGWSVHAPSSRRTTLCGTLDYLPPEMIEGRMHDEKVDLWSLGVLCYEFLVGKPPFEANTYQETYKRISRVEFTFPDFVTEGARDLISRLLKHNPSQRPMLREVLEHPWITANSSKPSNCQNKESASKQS
Description: as §1

Axl(h) = biological target: T4, Axl(h) (Homo sapiens, UniProt P30530); conditions: read-out: Inhibitory rate (%)
T4 construct: purchased Eurofins Pharma Discovery Services UK Limited (contract assay service)
Description: as §1

B-Raf(V599E)(h) = biological target: T5, B-Raf(V599E)(h) (Homo sapiens, UniProt P15056, V600E); conditions: read-out: Inhibitory rate (%)
T5 construct: purchased Eurofins Pharma Discovery Services UK Limited (contract assay service)
T5 sequence (P15056 416-766 V600E limits assumed): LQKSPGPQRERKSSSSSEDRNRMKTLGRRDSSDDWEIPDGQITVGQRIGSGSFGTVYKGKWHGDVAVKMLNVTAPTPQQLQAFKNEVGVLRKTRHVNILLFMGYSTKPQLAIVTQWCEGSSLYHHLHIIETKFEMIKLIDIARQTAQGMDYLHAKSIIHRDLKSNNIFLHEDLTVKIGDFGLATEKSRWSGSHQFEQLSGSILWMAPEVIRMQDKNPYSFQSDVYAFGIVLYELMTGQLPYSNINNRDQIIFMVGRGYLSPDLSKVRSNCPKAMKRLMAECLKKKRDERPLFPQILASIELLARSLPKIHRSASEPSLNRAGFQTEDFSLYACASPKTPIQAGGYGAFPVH
Description: as §1

B-Raf(h) = biological target: T6, B-Raf(h) (Homo sapiens, UniProt P15056); conditions: read-out: Inhibitory rate (%)
T6 construct: purchased Eurofins Pharma Discovery Services UK Limited (contract assay service)
Description: as §1

BTK(h) = biological target: T7, BTK(h) (Homo sapiens, UniProt Q06187); conditions: read-out: Inhibitory rate (%)
T7 construct: purchased Eurofins Pharma Discovery Services UK Limited (contract assay service)
Description: as §1

CDK3/cyclinE(h) = biological target: T8, CDK3/cyclinE(h) (Homo sapiens, UniProt Q00526); conditions: read-out: Inhibitory rate (%)
T8 construct: purchased Eurofins Pharma Discovery Services UK Limited (contract assay service)
Description: as §1

CDK6/cyclinD3(h) = biological target: T9, CDK6/cyclinD3(h) (Homo sapiens, UniProt Q00534); conditions: read-out: Inhibitory rate (%)
T9 construct: purchased Eurofins Pharma Discovery Services UK Limited (contract assay service)
Description: as §1

CDK7/cyclinH/MAT1(h) = biological target: T10, CDK7/cyclinH/MAT1(h) (Homo sapiens, UniProt P50613); conditions: read-out: Inhibitory rate (%)
T10 construct: purchased Eurofins Pharma Discovery Services UK Limited (contract assay service)
Description: as §1

CaMKIV(h) = biological target: T11, CaMKIV(h) (Homo sapiens, UniProt Q16566); conditions: read-out: Inhibitory rate (%)
T11 construct: purchased Eurofins Pharma Discovery Services UK Limited (contract assay service)
Description: as §1

CaMKK2(h) = biological target: T12, CaMKK2(h) (Homo sapiens, UniProt Q96RR4); conditions: read-out: Inhibitory rate (%)
T12 construct: purchased Eurofins Pharma Discovery Services UK Limited (contract assay service)
Description: as §1

DYRK2(h) = biological target: T13, DYRK2(h) (Homo sapiens, UniProt Q92630); conditions: read-out: Inhibitory rate (%)
T13 construct: purchased Eurofins Pharma Discovery Services UK Limited (contract testing)
Description: as §1

FAK(h) = biological target: T14, FAK(h) (Homo sapiens, UniProt Q05397); conditions: read-out: Inhibitory rate (%)
T14 construct: purchased Eurofins Pharma Discovery Services UK Limited (contract testing)
Description: as §1

Fes(h) = biological target: T15, Fes(h) (Homo sapiens, UniProt P07332); conditions: read-out: Inhibitory rate (%)
T15 construct: purchased Eurofins Pharma Discovery Services UK Limited (contract testing)
Description: as §1

Fms(h) = biological target: T16, Fms(h) (Homo sapiens, UniProt P07333); conditions: read-out: Inhibitory rate (%)
T16 construct: purchased Eurofins Pharma Discovery Services UK Limited (contract testing)
T16 sequence (P07333 20-972): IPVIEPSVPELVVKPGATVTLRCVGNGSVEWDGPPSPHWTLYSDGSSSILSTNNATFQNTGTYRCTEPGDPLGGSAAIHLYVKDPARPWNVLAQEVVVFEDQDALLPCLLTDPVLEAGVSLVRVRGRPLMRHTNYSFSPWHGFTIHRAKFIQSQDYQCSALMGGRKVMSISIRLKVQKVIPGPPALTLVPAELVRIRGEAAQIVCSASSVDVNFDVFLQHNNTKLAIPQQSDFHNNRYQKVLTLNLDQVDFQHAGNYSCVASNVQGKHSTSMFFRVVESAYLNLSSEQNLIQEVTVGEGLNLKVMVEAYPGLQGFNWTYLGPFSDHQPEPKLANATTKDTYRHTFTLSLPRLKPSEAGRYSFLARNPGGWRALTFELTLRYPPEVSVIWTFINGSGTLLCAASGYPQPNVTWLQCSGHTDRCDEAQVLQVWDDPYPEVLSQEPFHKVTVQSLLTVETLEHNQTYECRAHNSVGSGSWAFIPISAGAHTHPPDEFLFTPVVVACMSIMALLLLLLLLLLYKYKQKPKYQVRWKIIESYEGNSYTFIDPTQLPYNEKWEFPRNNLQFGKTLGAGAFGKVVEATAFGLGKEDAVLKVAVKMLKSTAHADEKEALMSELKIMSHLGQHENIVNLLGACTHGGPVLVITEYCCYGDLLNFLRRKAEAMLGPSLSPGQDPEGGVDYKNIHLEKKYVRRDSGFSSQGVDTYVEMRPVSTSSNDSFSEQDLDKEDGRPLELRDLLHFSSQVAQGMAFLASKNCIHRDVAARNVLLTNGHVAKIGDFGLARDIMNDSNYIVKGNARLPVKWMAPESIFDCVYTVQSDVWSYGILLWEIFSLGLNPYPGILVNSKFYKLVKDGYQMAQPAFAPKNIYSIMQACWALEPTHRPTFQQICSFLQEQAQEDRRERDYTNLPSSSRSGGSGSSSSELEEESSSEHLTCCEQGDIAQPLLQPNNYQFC
Description: as §1

GSK3β(h) = biological target: T17, GSK3β(h) (Homo sapiens, UniProt P49841); conditions: read-out: Inhibitory rate (%)
T17 construct: purchased Eurofins Pharma Discovery Services UK Limited (contract testing)
Description: as §1

IGF-1R(h), activated = biological target: T18, IGF-1R(h), activated (Homo sapiens, UniProt P08069); conditions: read-out: Inhibitory rate (%)
T18 construct: purchased Eurofins Pharma Discovery Services UK Limited (contract testing)
Description: as §1

Itk(h) = biological target: T19, Itk(h) (Homo sapiens, UniProt Q08881); conditions: read-out: Inhibitory rate (%)
T19 construct: purchased Eurofins Pharma Discovery Services UK Limited (contract testing)
T19 sequence (Q08881 whole entry): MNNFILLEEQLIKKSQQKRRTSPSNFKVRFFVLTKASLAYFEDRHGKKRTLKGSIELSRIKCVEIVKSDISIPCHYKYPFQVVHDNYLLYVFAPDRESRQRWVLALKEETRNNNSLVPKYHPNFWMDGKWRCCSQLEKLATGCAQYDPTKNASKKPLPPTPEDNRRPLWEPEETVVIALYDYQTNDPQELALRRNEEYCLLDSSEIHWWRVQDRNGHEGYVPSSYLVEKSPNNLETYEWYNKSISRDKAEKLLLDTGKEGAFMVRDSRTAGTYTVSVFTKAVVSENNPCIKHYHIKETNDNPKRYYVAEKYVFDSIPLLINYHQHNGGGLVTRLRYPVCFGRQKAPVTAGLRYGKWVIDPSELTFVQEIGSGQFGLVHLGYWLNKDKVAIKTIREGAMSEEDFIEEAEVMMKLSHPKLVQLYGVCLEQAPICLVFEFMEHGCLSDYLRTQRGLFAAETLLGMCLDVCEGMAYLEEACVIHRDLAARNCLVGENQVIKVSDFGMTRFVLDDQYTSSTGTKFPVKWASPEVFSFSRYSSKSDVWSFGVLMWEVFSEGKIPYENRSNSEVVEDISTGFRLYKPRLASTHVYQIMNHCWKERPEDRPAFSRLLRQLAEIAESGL
Description: as §1

Lck(h)activated = biological target: T20, Lck(h)activated (Homo sapiens, UniProt P06239); conditions: read-out: Inhibitory rate (%)
T20 construct: purchased Eurofins Pharma Discovery Services UK Limited
Description: as §1

MAPK1(h) = biological target: T21, MAPK1(h) (Homo sapiens, UniProt P27361); conditions: read-out: Inhibitory rate (%)
T21 construct: purchased Eurofins Pharma Discovery Services UK Limited
Description: as §1

PDGFRα(h) = biological target: T22, PDGFRα(h) (Homo sapiens, UniProt P16234); conditions: read-out: Inhibitory rate (%)
T22 construct: purchased Eurofins Pharma Discovery Services UK Limited
Description: as §1

PDGFRβ(h) = biological target: T23, PDGFRβ(h) (Homo sapiens, UniProt P09619); conditions: read-out: Inhibitory rate (%)
T23 construct: purchased Eurofins Pharma Discovery Services UK Limited
Description: as §1

PDK1(h) = biological target: T24, PDK1(h) (Homo sapiens, UniProt O15530); conditions: read-out: Inhibitory rate (%)
T24 construct: purchased Eurofins Pharma Discovery Services UK Limited
Description: as §1

PI3KC2γ(h) = biological target: T25, PI3KC2γ(h) (Homo sapiens, UniProt O75747); conditions: read-out: Inhibitory rate (%)
T25 construct: purchased Eurofins Pharma Discovery Services UK Limited (contract assay)
Description: as §1

PI3Kinase(p110α/p65α)(h) = biological target: T26, PI3Kinase(p110α/p65α)(h) (Homo sapiens, UniProt P42336); conditions: read-out: Inhibitory rate (%)
T26 construct: purchased Eurofins Pharma Discovery Services UK Limited (contract assay)
Description: as §1

PI3Kinase(p120γ)(h) = biological target: T27, PI3Kinase(p120γ)(h) (Homo sapiens, UniProt P48736); conditions: read-out: Inhibitory rate (%)
T27 construct: purchased Eurofins Pharma Discovery Services UK Limited (contract assay)
Description: as §1

PKA(h) = biological target: T28, PKA(h) (Homo sapiens, UniProt P17612); conditions: read-out: Inhibitory rate (%)
T28 construct: purchased Eurofins Pharma Discovery Services UK Limited
Description: as §1

PKBβ(h) = biological target: T29, PKBβ(h) (Homo sapiens, UniProt P31751); conditions: read-out: Inhibitory rate (%)
T29 construct: purchased Eurofins Pharma Discovery Services UK Limited
Description: as §1

PKCα(h) = biological target: T30, PKCα(h) (Homo sapiens, UniProt P17252); conditions: read-out: Inhibitory rate (%)
T30 construct: purchased Eurofins Pharma Discovery Services UK Limited
Description: as §1

PKCβII(h) = biological target: T31, PKCβII(h) (Homo sapiens, UniProt P05771); conditions: read-out: Inhibitory rate (%)
T31 construct: purchased Eurofins Pharma Discovery Services UK Limited
Description: as §1

PKCγ(h) = biological target: T32, PKCγ(h) (Homo sapiens, UniProt P05129); conditions: read-out: Inhibitory rate (%)
T32 construct: purchased Eurofins Pharma Discovery Services UK Limited
Description: as §1

Ron(h) = biological target: T33, Ron(h) (Homo sapiens, UniProt Q04912); conditions: read-out: Inhibitory rate (%)
T33 construct: purchased Eurofins Pharma Discovery Services UK Limited
Description: as §1

Syk(h) = biological target: T34, Syk(h) (Homo sapiens, UniProt P43405); conditions: read-out: Inhibitory rate (%)
T34 construct: purchased Eurofins Pharma Discovery Services UK Limited
Description: as §1

Tie2(h) = biological target: T35, Tie2(h) (Homo sapiens, UniProt Q02763); conditions: read-out: Inhibitory rate (%)
T35 construct: purchased Eurofins Pharma Discovery Services UK Limited
T35 sequence (Q02763 23-1124): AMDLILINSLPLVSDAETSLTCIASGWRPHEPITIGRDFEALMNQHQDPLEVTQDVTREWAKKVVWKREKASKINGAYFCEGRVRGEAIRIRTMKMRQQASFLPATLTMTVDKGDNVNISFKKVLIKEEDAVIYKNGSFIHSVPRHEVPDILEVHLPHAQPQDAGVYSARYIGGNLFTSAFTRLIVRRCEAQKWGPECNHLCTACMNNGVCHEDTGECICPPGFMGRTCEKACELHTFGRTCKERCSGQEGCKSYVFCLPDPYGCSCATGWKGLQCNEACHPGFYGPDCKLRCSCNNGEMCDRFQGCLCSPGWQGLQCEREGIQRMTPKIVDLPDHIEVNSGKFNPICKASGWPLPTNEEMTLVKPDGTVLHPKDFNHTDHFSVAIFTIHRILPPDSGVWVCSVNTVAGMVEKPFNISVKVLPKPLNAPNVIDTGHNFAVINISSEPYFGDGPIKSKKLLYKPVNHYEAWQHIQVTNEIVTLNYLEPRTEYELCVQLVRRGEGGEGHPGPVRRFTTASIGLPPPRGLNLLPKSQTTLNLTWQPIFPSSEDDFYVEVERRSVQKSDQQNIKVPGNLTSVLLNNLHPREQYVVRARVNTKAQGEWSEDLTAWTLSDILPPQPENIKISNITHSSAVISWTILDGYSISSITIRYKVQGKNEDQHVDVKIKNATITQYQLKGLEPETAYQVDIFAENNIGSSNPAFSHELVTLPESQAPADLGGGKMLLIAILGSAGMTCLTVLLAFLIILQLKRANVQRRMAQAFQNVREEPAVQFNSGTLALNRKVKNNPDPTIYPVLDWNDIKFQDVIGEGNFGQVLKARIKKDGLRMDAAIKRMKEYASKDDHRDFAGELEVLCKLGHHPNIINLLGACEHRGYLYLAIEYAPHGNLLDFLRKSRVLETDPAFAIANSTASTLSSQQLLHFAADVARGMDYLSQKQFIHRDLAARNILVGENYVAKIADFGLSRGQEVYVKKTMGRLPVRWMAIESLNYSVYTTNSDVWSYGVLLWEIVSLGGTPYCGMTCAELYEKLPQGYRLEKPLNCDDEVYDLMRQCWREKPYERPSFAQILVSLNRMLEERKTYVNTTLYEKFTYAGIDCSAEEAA
Description: as §1

Yes(h) = biological target: T36, Yes(h) (Homo sapiens, UniProt P07947); conditions: read-out: Inhibitory rate (%)
T36 construct: purchased Eurofins Pharma Discovery Services UK Limited
Description: as §1

cKit(h) = biological target: T37, cKit(h) (Homo sapiens, UniProt P10721); conditions: read-out: Inhibitory rate (%)
T37 construct: purchased Eurofins Pharma Discovery Services UK Limited (contract testing)
T37 sequence (P10721 26-976): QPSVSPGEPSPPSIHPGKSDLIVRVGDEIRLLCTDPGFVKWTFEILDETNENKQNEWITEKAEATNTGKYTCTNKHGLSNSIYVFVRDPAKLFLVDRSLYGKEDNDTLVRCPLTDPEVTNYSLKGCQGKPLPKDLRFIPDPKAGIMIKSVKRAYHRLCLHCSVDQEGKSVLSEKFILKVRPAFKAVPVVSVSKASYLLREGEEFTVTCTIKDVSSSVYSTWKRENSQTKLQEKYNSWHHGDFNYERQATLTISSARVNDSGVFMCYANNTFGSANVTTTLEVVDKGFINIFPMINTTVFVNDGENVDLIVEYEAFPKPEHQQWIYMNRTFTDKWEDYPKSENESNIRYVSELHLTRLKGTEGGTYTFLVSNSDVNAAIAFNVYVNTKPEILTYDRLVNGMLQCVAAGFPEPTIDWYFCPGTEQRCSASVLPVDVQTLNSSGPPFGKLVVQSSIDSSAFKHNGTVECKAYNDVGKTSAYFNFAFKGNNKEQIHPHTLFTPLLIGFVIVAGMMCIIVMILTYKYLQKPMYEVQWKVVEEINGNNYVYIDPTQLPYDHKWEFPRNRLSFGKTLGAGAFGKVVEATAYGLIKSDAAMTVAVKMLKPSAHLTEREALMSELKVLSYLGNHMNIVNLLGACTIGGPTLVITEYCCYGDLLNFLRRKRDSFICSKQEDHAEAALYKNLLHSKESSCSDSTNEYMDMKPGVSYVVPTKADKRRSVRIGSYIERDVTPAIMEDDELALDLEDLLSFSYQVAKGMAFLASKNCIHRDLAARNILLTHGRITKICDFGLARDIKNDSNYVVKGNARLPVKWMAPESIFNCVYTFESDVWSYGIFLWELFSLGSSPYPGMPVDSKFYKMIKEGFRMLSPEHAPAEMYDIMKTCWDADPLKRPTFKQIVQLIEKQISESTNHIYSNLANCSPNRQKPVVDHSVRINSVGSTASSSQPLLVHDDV
Description: as §1

mTOR(h) = biological target: T38, mTOR(h) (Homo sapiens, UniProt P42345)
T38 construct: purchased Eurofins Pharma Discovery Services UK Limited (contract assay)
Description: as §1

mTOR/FKBP12(h) = biological target: T39, mTOR/FKBP12(h) (Homo sapiens, UniProt P42345); conditions: read-out: Inhibitory rate (%)
T39 construct: purchased Eurofins Pharma Discovery Services UK Limited
Description: as §1

C=C(C)n1c(=O)n(C(C)=O)c2ncc(Br)cc21 [FD162]
inhibition at 10 µM (Abl(h)): 2%
inhibition at 10 µM (Arg(h)): -7%
inhibition at 10 µM (Aurora-A(h)): 1%
inhibition at 10 µM (Axl(h)): 24%
inhibition at 10 µM (B-Raf(V599E)(h)): -1%
inhibition at 10 µM (B-Raf(h)): -6%
inhibition at 10 µM (BTK(h)): 7%
inhibition at 10 µM (CDK3/cyclinE(h)): 7%
inhibition at 10 µM (CDK6/cyclinD3(h)): -1%
inhibition at 10 µM (CDK7/cyclinH/MAT1(h)): -8%
inhibition at 10 µM (CaMKIV(h)): 2%
inhibition at 10 µM (CaMKK2(h)): 1%
inhibition at 10 µM (DYRK2(h)): 1%
inhibition at 10 µM (FAK(h)): 1%
inhibition at 10 µM (Fes(h)): -8%
inhibition at 10 µM (Fms(h)): -9%
inhibition at 10 µM (GSK3β(h)): 6%
inhibition at 10 µM (IGF-1R(h), activated): 0%
inhibition at 10 µM (Itk(h)): -7%
inhibition at 10 µM (Lck(h)activated): -1%
inhibition at 10 µM (MAPK1(h)): 8%
inhibition at 10 µM (PDGFRα(h)): -9%
inhibition at 10 µM (PDGFRβ(h)): -8%
inhibition at 10 µM (PDK1(h)): -1%
inhibition at 10 µM (PI3KC2γ(h)): 3%
inhibition at 10 µM (PI3Kinase(p110α/p65α)(h)): 3%
inhibition at 10 µM (PI3Kinase(p120γ)(h)): 2%
inhibition at 10 µM (PKA(h)): -5%
inhibition at 10 µM (PKBβ(h)): 4%
inhibition at 10 µM (PKCα(h)): 24%
inhibition at 10 µM (PKCβII(h)): 6%
inhibition at 10 µM (PKCγ(h)): 11%
inhibition at 10 µM (Ron(h)): 8%
inhibition at 10 µM (Syk(h)): 0%
inhibition at 10 µM (Tie2(h)): 14%
inhibition at 10 µM (Yes(h)): -2%
inhibition at 10 µM (cKit(h)): 7%
Selectivity among 114 tumor-associated kinases (mTOR(h); 10 μM, in words): selectively inhibit the activity of mTOR
inhibition at 10 µM (mTOR(h); mTOR(h), read-out: Inhibitory rate (%)): 95%
inhibition at 10 µM (mTOR/FKBP12(h)): 33%
